Measured values: US20250082624A1, “METHODS OF TREATING COGNITIVE IMPAIRMENT” (NeuroTherapia, Inc., priority 2023, published 2025)

Tests used:
[1] = Two-compartment PK model of NTRX-07 plasma data (fit and dose predictions); design: species or system human; conditions: compartmental PK model; for AUC24 h accumulation / Cmax accumulation: over 7 days
Description: Predictive compartmental PK analysis was utilized during dose escalation to predict PK outcomes at higher dose levels based on data from lower ones.
FIGS. 22A and 22B show the mathematical model with a simultaneous fit to data from all four cohorts (excluding fed subject data).
Compartmental analysis was performed using a two-compartment model with extravascular administration. Modeling was performed using a sophisticated MS Excel workbook developed by PharmaDirections.
FIGS. 24A-B show the mathematical model (heavy blue line) fit to the Cohort A data. The model will be further refined as data from additional cohorts become available. In particular, the terminal slope may change some, as the current data set is inadequate to define it. The model was built based on geometric mean data, but timepoint data were not used in cases where plasma concentrations were below the limit of quantitation for four or more of the six subjects.
Note that the model estimates are somewhat higher than those obtained from non-compartmental analysis since they consider the entire dosing interval as opposed to only the time points for which data are available.
These predictions are based on an assumption of linear PK across the specified dose range, and parameters could be underestimated if a saturable process limits bioavailability or is involved in drug clearance. Current data are insufficient to determine whether any saturable processes are involved in NTRX-007 uptake or clearance.
(§1) Compartmental analysis was performed based on a two-compartment model with extravascular administration. Modeling was performed using a sophisticated MS Excel workbook developed by PharmaDirections. Geometric mean data from Cohorts A and B were used to determine weighted least squares best fits for the PK parameters.
FIGS. 26A-26B show the mathematical model (heavy blue line) fit to the Cohort B data. The model was built based on geometric mean data, but timepoint data were not used in cases where plasma concentrations were below the limit of quantitation for four or more of the seven subjects.
as §1, with “A, B,” for “A”, “C” for “B”
The model predicts somewhat higher exposure for b.i.d. dosing.
as §1, with “A, B, C,” for “A”, “D” for “B”

[2] = tested on: volunteers and AD patients; assay: Orthostatic blood pressure and vertigo tests (timed get-up and go, Nystagmus test, Romberg test); format: in vivo, human; conditions: Phase 1b
Description: Assessments: Subjects were assessed for changes in vital signs, orthostatic blood pressure, Romberg test, nystagmus, timed get up and go, electrocardiograms, electroencephalograms (EEG), and laboratory studies. Subjective questionnaires of drug effects (ARCI-M) were administered. Cohort B returned and received a single repeat dose after a standard high-fat meal. The AD cohort also underwent cognitive testing (MMSE, ADAS-COG, MOCA) and had blood samples for biomarkers drawn.
An informational letter was filed with the FDA to inform them of this study. The study was designed as follows: • 3 healthy cohorts (cohorts A-C) followed by AD cohort (cohort D) treated at MTD • 6 treated, 2 placebos in each cohort • Doses: 10, 30, 90 mg/treatment—latter doses can be adjusted based on PK assessment • In unit, 7 days of treatment • Monitor vertigo with various tests: (1) timed get-up and go, (2) Nystagmus test, (3) Romberg test, and (4) changes in orthostatic blood pressure (Day 1, 3 and 8) • Use 24 hr EEG monitoring for CNS safety assessment • Assess plasma biomarkers of inflammation and AD pre- and post-treatment in AD cohort • Assess changes on cognition post-treatment using MMSE and ADAS-cog • Fed/fasted study to determine food effects on PK as a subset of the Phase 1b

In the case of `CC1(Cc2ccccc2)COc2cc(C(=O)N3CCCCC3)ccc21` (centres unmarked) [NTRX-07, 3-benzyl-3-methyl-2,3-dihydrobenzofuran-6-carboxylic acid-piperidine amide], the AUC24 h ([1]; 40 mg SDD QD, Day 1) is reported as 96 ng·h/mL, the Cmax ([1]; 40 mg SDD QD, Day 1) is reported as 43.9 ng/mL and the Cmin ([1]; 40 mg SDD QD, Day 1) is reported as 0.0 ng/mL. For the same molecule, the Tmax ([1]; 40 mg SDD QD, Day 1) was 4.8 min, the AUC24 h ([1]; 40 mg SDD QD, Day 2) was 100 ng·h/mL and the Cmax ([1]; 40 mg SDD QD, Day 2) was 44.3 ng/mL. It also gave a Cmin ([1]; 40 mg SDD QD, Day 2) of 0.4 ng/mL, a Tmax ([1]; 40 mg SDD QD, Day 2) of 4.8 min and an AUC24 h ([1]; 40 mg SDD QD, Day 3) of 101 ng·h/mL. For the same molecule, the Cmax ([1]; 40 mg SDD QD, Day 3) was 44.4 ng/mL, the Cmin ([1]; 40 mg SDD QD, Day 3) was 0.5 ng/mL and the Tmax ([1]; 40 mg SDD QD, Day 3) was 4.8 min. For the same molecule, the AUC24 h ([1]; 40 mg SDD QD, Day 4) was 101 ng·h/mL, the Cmax ([1]; 40 mg SDD QD, Day 4) was 44.4 ng/mL and the Cmin ([1]; 40 mg SDD QD, Day 4) was 0.5 ng/mL. The Tmax ([1]; 40 mg SDD QD, Day 4) was 4.8 min, the AUC24 h ([1]; 40 mg SDD QD, Day 5) was 101 ng·h/mL and the Cmax ([1]; 40 mg SDD QD, Day 5) was 44.4 ng/mL. The Cmin ([1]; 40 mg SDD QD, Day 5) was 0.5 ng/mL, the Tmax ([1]; 40 mg SDD QD, Day 5) was 4.8 min and the AUC24 h ([1]; 40 mg SDD QD, Day 6) was 101 ng·h/mL. The Cmax ([1]; 40 mg SDD QD, Day 6) was 44.4 ng/mL, the Cmin ([1]; 40 mg SDD QD, Day 6) was 0.5 ng/mL and the Tmax ([1]; 40 mg SDD QD, Day 6) was 4.8 min. For the same molecule, the AUC24 h ([1]; 40 mg SDD QD, Day 7) was 101 ng·h/mL, the Cmax ([1]; 40 mg SDD QD, Day 7) was 44.4 ng/mL and the Cmin ([1]; 40 mg SDD QD, Day 7) was 0.5 ng/mL. The Tmax ([1]; 40 mg SDD QD, Day 7) was 4.8 min, the AUC24 h accumulation ([1]; 40 mg SDD QD) was 104% and the Cmax accumulation ([1]; 40 mg SDD QD) was 101%. For the same molecule, the AUC24 h ([1]; 120 mg SDD QD, Day 1) was 210 ng·h/mL, the Cmax ([1]; 120 mg SDD QD, Day 1) was 74.6 ng/mL and the Tmax ([1]; 120 mg SDD QD, Day 1) was 37.8 min. For the same molecule, the AUC24 h ([1]; 120 mg SDD QD, Day 2) was 227 ng·h/mL, the Cmax ([1]; 120 mg SDD QD, Day 2) was 76.1 ng/mL and the Cmin ([1]; 120 mg SDD QD, Day 2) was 1.5 ng/mL. For the same molecule, the Tmax ([1]; 120 mg SDD QD, Day 2) was 37.8 min, the AUC24 h ([1]; 120 mg SDD QD, Day 3) was 230 ng·h/mL and the Cmax ([1]; 120 mg SDD QD, Day 3) was 76.3 ng/mL. It also gave a Cmin ([1]; 120 mg SDD QD, Day 3) of 1.8 ng/mL, a Tmax ([1]; 120 mg SDD QD, Day 3) of 37.8 min and an AUC24 h ([1]; 120 mg SDD QD, Day 4) of 231 ng·h/mL. The Cmax ([1]; 120 mg SDD QD, Day 4) was 76.4 ng/mL, the Cmin ([1]; 120 mg SDD QD, Day 4) was 1.8 ng/mL and the Tmax ([1]; 120 mg SDD QD, Day 4) was 37.8 min. It also gave an AUC24 h ([1]; 120 mg SDD QD, Day 5) of 231 ng·h/mL, a Cmax ([1]; 120 mg SDD QD, Day 5) of 76.4 ng/mL and a Cmin ([1]; 120 mg SDD QD, Day 5) of 1.8 ng/mL. For the same molecule, the Tmax ([1]; 120 mg SDD QD, Day 5) was 37.8 min, the AUC24 h ([1]; 120 mg SDD QD, Day 6) was 231 ng·h/mL and the Cmax ([1]; 120 mg SDD QD, Day 6) was 76.4 ng/mL. For the same molecule, the Cmin ([1]; 120 mg SDD QD, Day 6) was 1.8 ng/mL, the Tmax ([1]; 120 mg SDD QD, Day 6) was 37.8 min and the AUC24 h ([1]; 120 mg SDD QD, Day 7) was 231 ng·h/mL. The Cmax ([1]; 120 mg SDD QD, Day 7) was 76.4 ng/mL, the Cmin ([1]; 120 mg SDD QD, Day 7) was 1.8 ng/mL and the Tmax ([1]; 120 mg SDD QD, Day 7) was 37.8 min. It also gave an AUC24 h accumulation ([1]; 120 mg SDD QD) of 110%, a Cmax accumulation ([1]; 120 mg SDD QD) of 102% and an AUC24 h ([1]; 360 mg SDD QD, Day 1) of 559 ng·h/mL. For the same molecule, the Cmax ([1]; 360 mg SDD QD, Day 1) was 162.0 ng/mL, the Tmax ([1]; 360 mg SDD QD, Day 1) was 47.4 min and the AUC24 h ([1]; 360 mg SDD QD, Day 2) was 616 ng·h/mL. It also gave a Cmax ([1]; 360 mg SDD QD, Day 2) of 166.4 ng/mL, a Cmin ([1]; 360 mg SDD QD, Day 2) of 4.7 ng/mL and a Tmax ([1]; 360 mg SDD QD, Day 2) of 47.4 min. For the same molecule, the AUC24 h ([1]; 360 mg SDD QD, Day 3) was 628 ng·h/mL, the Cmax ([1]; 360 mg SDD QD, Day 3) was 167.4 ng/mL and the Cmin ([1]; 360 mg SDD QD, Day 3) was 5.4 ng/mL. It also gave a Tmax ([1]; 360 mg SDD QD, Day 3) of 47.4 min, an AUC24 h ([1]; 360 mg SDD QD, Day 4) of 631 ng·h/mL and a Cmax ([1]; 360 mg SDD QD, Day 4) of 167.6 ng/mL. The Cmin ([1]; 360 mg SDD QD, Day 4) was 5.7 ng/mL, the Tmax ([1]; 360 mg SDD QD, Day 4) was 47.4 min and the AUC24 h ([1]; 360 mg SDD QD, Day 5) was 631 ng·h/mL. For the same molecule, the Cmax ([1]; 360 mg SDD QD, Day 5) was 167.6 ng/mL, the Cmin ([1]; 360 mg SDD QD, Day 5) was 5.7 ng/mL and the Tmax ([1]; 360 mg SDD QD, Day 5) was 47.4 min. The AUC24 h ([1]; 360 mg SDD QD, Day 6) was 631 ng·h/mL, the Cmax ([1]; 360 mg SDD QD, Day 6) was 167.6 ng/mL and the Cmin ([1]; 360 mg SDD QD, Day 6) was 5.7 ng/mL. The Tmax ([1]; 360 mg SDD QD, Day 6) was 47.4 min, the AUC24 h ([1]; 360 mg SDD QD, Day 7) was 631 ng·h/mL and the Cmax ([1]; 360 mg SDD QD, Day 7) was 167.6 ng/mL. It also gave a Cmin ([1]; 360 mg SDD QD, Day 7) of 5.7 ng/mL, a Tmax ([1]; 360 mg SDD QD, Day 7) of 47.4 min and an AUC24 h accumulation ([1]; 360 mg SDD QD) of 113%. For the same molecule, the Cmax accumulation ([1]; 360 mg SDD QD) was 103%, the “Orthostatic events observed during trial: Severity” value ([2]; individual subjects on NTRX-07 (Cohort B 30 mg, C and D 90 mg QD)) was “Mild” and the “Primary side effect observed” value ([2]; usually with early doses) was “mild transient orthostatic changes in blood pressure”. The “Orthostasis: Incidences” value ([2]; treated subjects) was 16.7% and the “Orthostasis: Subjects who had an incident” value ([2]; treated subjects) was 16.7%.
